# What was measured:
# HCT116 cells = experiment: Cell cycle analysis, EdU and propidium iodide flow cytometry assay; type: cell-based, human; details: 24 hrs nutlin-3a treatment
# Procedure: Cell cycle analysis: Click-iT™ Plus EdU Alexa Fluor™ 488 Flow Cytometry Assay Kit (Life technologies) was used according to manufacturer's protocol. Briefly, cells were plated a day prior to nutlin-3a or vehicle treatment. After 24 hrs of chemical treatment, cells in S-phase were labeled with […] EdU solution for 2 hrs. FxCycle™ PI/RNase Staining Solution (Life technologies) was used for PI staining. After the staining, cells were analyzed by NovoCyte Quanteon Flow Cytometer Systems (Agilent, Santa Clara, CA, USA).
# The PI assay detects total DNA amounts for G1 and G2-phase comparison. The EdU assay labels newly synthesized DNA to detect S-phase.
# p53 pathway = details: U2OS cells (wild-type TP53); 10 μM nutlin-3a; 5 μM, 10 μM and 20 μM tested
# Source text: Cell culture conditions: HEK293T (ATCC CRL-11268) and MMNK-1 (JCRB1554) cells were maintained in Dulbecco's modified Eagle's medium (DMEM) with 10% fetal bovine serum (FBS). HCT116 (ATCC CCL-247) cells and U2OS (ATCC HTB-96) were maintained in McCoy's 5A modified medium supplemented with 10% FBS. […] K562 (ATCC CCL-243) cells were maintained in RPMI 1640 with 10% FBS. Cells were authenticated by STR profiling. All cell lines were confirmed by PCR to be free of mycoplasma contamination.
# HCT116 and U2OS human cell lines were used for this study. Both cell lines have wild-type TP53 which was independently confirmed.
smiles,measurement,setting,value
COc1ccc(C2=N[C@@H](c3ccc(Cl)cc3)[C@@H](c3ccc(Cl)cc3)N2C(=O)N2CCNC(=O)C2)c(OC(C)C)c1 [nutlin-3a],cell cycle arrest,"HCT116 cells; HCT116 clonal cells with TP53 I195T mutation, FIG. 4C, P=0.95",did not undergo arrest
same,cell cycle arrest,"HCT116 cells; HCT116 clonal cells with TP53 Y220C mutation, FIG. 4C, P=0.95",did not undergo arrest
same,cell cycle arrest,"HCT116 cells; wild-type HCT116 cells, FIG. 4c, P<2.2e-16",arrested
same,p53 pathway activation,p53 pathway,successful p53 pathway activation
